Measured values as given in patent publication US12559471B2, “1,5-dihydro-2,4-benzodiazepine-3-one derivative and application thereof” (JIANGSU NHWA PHARMACEUTICAL CO., LTD, priority 2020, dated 2026).
Values joined by “and” are separate entries in the source; they are usually repeats but may differ in a detail not shown here. Identical values can stand only once.

How the values were obtained:
Format in all cases: in vivo
[1] = tested on: MPTP+APO-induced climbing behavior in male mice; assay: MPTP+APO-induced climbing behavior in male mice (DA motor deterioration model); details: observation in words
Experimental: 1.2 Effect on MPTP+APO-induced climbing behavior in male mice (DA motor deterioration model) Animals were injected with different doses of MPTP intraperitoneally every morning for 5 consecutive days. […] After the subcutaneous injection, animals were immediately placed into a climbing cage (self-made, a cylindrical cage with the diameter of 13 cm and the height of 15 cm, made of a stainless steel wire mesh with the diameter of about 0.1 cm, the bottom of which is a semitransparent polyethylene plate, and the cage cover of which is a stainless steel cage cover), and the behaviors of animals at minutes 10-11, 20-21 and 30-31 after the APO injection was observed and scored.
Scoring criteria: four feet on the floor scored 0; two forepaws on the cage scored 1; and four feet on the cage scored 2.

PPI in normal rats = PPI in normal rats (dosing test, normal saline instead of DOI); details: for PPI %, MEAN / PPI %, individual animal: normal saline
Experimental: The test was performed according to literature and preliminary experiments, and the specific process was as follows: first an adaptation period of 5 min was given (62 dB background sound), and 5 separate startle reflex stimuli were given after the adaptation period (blockl, results not included in the analysis to reduce the initial response of the animals to a plateau level), followed by 4 different types of tests (block2) presented in a pseudo-random manner, namely: 1) startle reflex stimulus alone (pulse-alone, 120 dB, lasting 20 ms); 2) prepulse stimulus alone 13 dB above the background sound (prepulse-alone, 75 dB, lasting 20 ms); 3) prepulse stimulus in combination with startle reflex stimulus, each lasting 20 ms, with an interval of 100 ms; and 4) no stimulus in which only the background sound was given (no stimulus). Each trial was performed 5 times, with an average interval of 20 s (10-30 s) between trials.
The response amplitude of the startle reflex stimulus alone or the prepulse stimulus in combination with startle reflex stimulus was expressed as the AVG (instrument-specific unit) value, which indirectly reflects the size of the flinching response of the rat body. Evaluation index: PPI %=(1−response amplitude of prepulse stimulus in combination with startle reflex stimulus/response amplitude of startle reflex stimulus alone)×100. The higher the value is, the greater the degree of the inhibition is. Dosing Test:
The DOI at 0.5 mg/kg administered to animals in the above groups was changed to normal saline (NS), and other operations including administration and testing were the same as those in the intervention test.

[2] = tested on: DOI-induced head shaking behavior of mice; assay: DOI-induced head shaking (head thrust) test in mice; details: Mus musculus, intragastric, DOI 1 mg/kg i.p., 0-20 min, read-out: ED50 for inhibiting the DOI-induced head shaking behavior

CC(C)COc1ccc(CN2Cc3ccc(F)cc3CN(C3CCN(C)CC3)C2=O)cc1 [NH-K-A19005, 8-fluoro-2-(1-methylpiperidin-4-yl)-4-[[4-(2-methylpropoxy)phenyl]methyl]-1,5-dihydro-2,4-benzo diazepine-3-one]
motor deterioration (DA mechanism of action) [1]: no motor deterioration is observed
effect on PPI in normal rats (PPI in normal rats; 3 mg/kg): no significant effects were seen
PPI %, MEAN (PPI in normal rats; 1 mg/kg intragastric): 56.40%
PPI %, individual animal (PPI in normal rats; 1 mg/kg intragastric): 80.68% and 15.47% and 49.79% and 52.82% and 71.15% and 68.46%
PPI %, MEAN (PPI in normal rats; 3 mg/kg intragastric): 57.04%
PPI %, individual animal (PPI in normal rats; 3 mg/kg intragastric): 59.36% and 82.61% and 79.48% and 48.75% and 42.42% and 38.56% and 48.95% and 56.22%
PPI %, MEAN (PPI in normal rats; 10 mg/kg intragastric): 73.61%
PPI %, individual animal (PPI in normal rats; 10 mg/kg intragastric): 55.11% and 96.41% and 53.03% and 84.89% and 84.43% and 72.39% and 61.37% and 81.26%
ED50 [2]: 0.15 mg/kg
